Holding throughout (format): in vivo
The test system of test [1] is Spodoptera frugiperda. As to the kind of experiment: Spodoptera frugiperda test (drench application), transgenic maize. The source says: (§1) A synergistic effect in insecticides and acaricides is always present when the effect of the present invention's combinations is greater than the expected effect, which for a given combination can be calculated after S. R. Colby, Weeds 15 (1967), 20-22 as follows:
(§2) when • X is the kill rate expressed in % of the untreated control on using active compound A at an application rate of m g/ha or in a concentration of m ppm, • Y is the kill rate expressed in % of the untreated control on using active compound B at an application rate of n g/ha or in a concentration of n ppm and • Z is the kill rate expressed in % of the untreated control on using active compound C at an application rate of r g/ha or in a concentration of r ppm, • E is the efficacy on using active compounds A and B and C in application rates of m and n and r g/ha then
(§3) If the actual kill rate is greater than calculated, then the killing effect of the combination is superadditive, i.e., a synergistic effect is present. In this case, the actually observed kill rate has to be greater than that calculated from the above-recited formula for the expected kill rate (E).
The earth of the pots each with 5 transgenic maize plants with Lepidoptera, Coleoptera and/or herbicide resistance is drenched with the desired product. Then, the plants are infected with larvae of the army worm (Spodoptera frugiperda).
(§4) After the desired time, the kill in % is determined 100% means that all the caterpillars were killed; 0% means that no caterpillars were killed.

For a further test, the system named is Spodoptera exigua. As to the kind of experiment: Spodoptera exigua test (leaf application), transgenic maize.
Description: as §1, §2, §3
Pots each holding 5 transgenic maize plants with Lepidoptera, Coleoptera and/or herbicide resistance are treated in 2 replications against the small mottled willow (Spodoptera exigua).
as §4

The subject of test [2] is Spodoptera frugiperda. As to the kind of experiment: Spodoptera frugiperda test (leaf application), transgenic cotton.
Description: as §1, §2, §3
Individually potted transgenic cotton plants with Lepidoptera resistance and herbicide resistance (line DP444 BG/RR) are treated with the desired product against the army worm (Spodoptera frugiperda)
as §4

Test [3] has as its system Spodoptera frugiperda. Kind of test: Spodoptera frugiperda test (leaf application), transgenic maize.
Description: as §1, §2, §3
Pots each holding 5 transgenic maize plants with Lepidoptera, Coleoptera and/or herbicide resistance are treated in 2 replications against the army worm (Spodoptera frugiperda).
as §4

The subject of the next test is Heliothis armigera. Kind of test: Heliothis armigera test (leaf application), transgenic cotton.
Description: as §1, §2, §3
Individually potted transgenic cotton plants with Lepidoptera resistance and herbicide resistance (line DP444 BG/RR) are treated with the desired product against the cotton ball worm (Heliothis armigera).
as §4

For a further test, the system named is Aphis gossypii. As to the kind of experiment: Aphis gossypii test (leaf application), transgenic cotton.
Description: as §1, §2
If the actual kill rate is greater than calculated, then the killing effect of the combination is superadditive, i.e., a synergistic effect is present. In this case, the actually observed kill rate has to be greater than that calculated from the above-recited formula for the expected kill rate (E). […]
After the desired time, the kill in % is determined 100% means that all the aphids were killed; 0% means that no aphids were killed.

Consider `O=[N+]([O-])NC1=NCCN1Cc1ccc(Cl)nc1` [Imidacloprid], for which the “Kill in % after 3 d” value in the test with Spodoptera frugiperda [1] (4 ppm) was 0%. Further, the “Kill in % after 1 d” value with Spodoptera exigua (4 ppm) and in the test with Spodoptera frugiperda [3] (4 ppm) was 0% each time. Besides, the “Kill in % after 6 d” value in the test on Spodoptera frugiperda [2] (4 ppm) was 10%.
As to Spinosad, the “Kill in % after 4 d” value stood at 0% in the test on Spodoptera frugiperda [1] (4 ppm), 20% with Spodoptera exigua (0.16 ppm), 0% in the test on Spodoptera frugiperda [3] (0.16 ppm) and 20% with Heliothis armigera (0.16 ppm).
With `N#Cc1nn(-c2c(Cl)cc(C(F)(F)F)cc2Cl)c(N)c1[S+]([O-])C(F)(F)F` (stereo not drawn) [Fipronil], the “Kill in % after 4 d” value with Spodoptera frugiperda [1] (20 ppm) came out at 0%; with Spodoptera exigua (4 ppm), 0%; in the test on Aphis gossypii (4 ppm), 25%.
With `CNC(=O)c1cc(Cl)cc(C)c1NC(=O)c1cc(Br)nn1-c1ncccc1Cl` [(I-1)], the “Kill in % after 4 d” value in the test on Spodoptera frugiperda [1] (4 ppm) stood at 0%; in the test with Spodoptera frugiperda [1] (20 ppm), 50%; in the test with Spodoptera exigua (0.032 ppm) it was 0%; in the test on Spodoptera exigua (0.16 ppm) it was 0%; in the test on Spodoptera frugiperda [2] (0.032 ppm), 70%; in the test with Spodoptera frugiperda [3] (0.0064 ppm), 0%. The figures for the “Kill in % after 4 d” value in the test with Heliothis armigera (0.032 ppm) and in the test with Aphis gossypii (0.16 ppm) were 50% and 0%, respectively. For the same molecule, the “Kill in % after 1 d” value in the test on Spodoptera frugiperda [1] (20 ppm) came out at 30%; in the test on Spodoptera exigua (0.16 ppm), 0%; in the test on Spodoptera frugiperda [3] (0.16 ppm), 0%. In addition, the “Kill in % after 3 d” value in the test with Spodoptera frugiperda [1] (20 ppm) is 45%. Besides, the “Kill in % after 6 d” value in the test on Spodoptera frugiperda [2] (0.032 ppm) is on record as 15%.
For the molecule `CN/C(=N\[N+](=O)[O-])NCc1cnc(Cl)s1` [Clothianidin], the “Kill in % after 4 d” value with Spodoptera frugiperda [1] (4 ppm) stood at 10%; in the test with Spodoptera frugiperda [2] (0.16 ppm), 0%; in the test on Heliothis armigera (0.16 ppm), 0%. In addition, in the test on Spodoptera exigua (4 ppm), the “Kill in % after 1 d” value worked out at 0%.
For the molecule Abamectin, the “Kill in % after 1 d” value with Spodoptera frugiperda [1] (4 ppm) is 0%; in the test with Spodoptera frugiperda [3] (0.16 ppm) it was 10%. The “Kill in % after 4 d” value in the test on Spodoptera frugiperda [1] (4 ppm) came to 0%; with Spodoptera exigua (0.16 ppm), 35%; in the test with Heliothis armigera (0.16 ppm), 30%.

The record behind these values is US20130288990A1, “CONTROLLING PESTS BY COMBINING INSECTICIDES AND TRANSGENIC PLANTS BY APPLYING DIRECTLY TO LEAVES AND ROOTS” (priority 2007, published 2013).
